What all share (format): cell-based, human
Assay [1] concerns CD8+CD45RA+CCR7+CD62L+ T cells. The assay can be described thus: Flow cytometry for CD8, CD45RA, CCR7 and CD62L on inhibitor-treated T cells. Conditions: cells cultured for 14 days. The protocol:
(§1) DAY 0: Blood was obtained from unidentified donor. After RBC lysis, PBMC were collected using Ficoll-Hypaque separation. […] T cells were cultured in three different conditions: • 1. XVIVO 15 medium (Lonza) with IL2 50 IU/ml, CD3 antibody (30 ng/ml) and CD28 antibody (30 ng/ml). • 2. XVIVO 15 medium (Lonza) with CD3 antibody (30 ng/ml) and CD28 antibody (30 ng/ml). • 3. XVIVO 15 medium (Lonza) with IL2 50 IU/ml DAY 1: Cells were plated in a 6-well plate at a density of 1 million cells in 2 ml/of media (as described above) and treated with different inhibitors
(§2) A second aliquot of the cells cultured for 13 days with all the treatments listed above (1-21) was washed with PBS+1% FBS, stained with CD8-PerCP, CD45RA-FITC, CCR7-PE and CD62L-APC ([…] for each of 4 antibodies) at 4° C. for 1 h, washed twice with […] and analyzed on flow cytometer to check if these drugs are enriching T stem cells showing surface expression of CD8+CD45RA+CCR7+CD62L+.
(§3) Day 0: Blood was obtained from unidentified donor. After RBC lysis, PBMC were collected using Ficoll-Hypaque separation. 200 million T cells were isolated from PBMCs using CD3 microbeads. T cells were cultured overnight in XVIVO 15 medium (Lonza) with IL2 (50 IU/ml), 30 ng/ml of CD3 and CD28 antibodies
(§4) Day 1: Cells were plated in 24-well plates at a density of 0.3 million cells/ml in each well and treated with different drugs.
(§5) On day 7, culture medium was replaced with fresh medium with fresh drugs.
(§6) On day 13, culture medium was replaced with fresh medium and fresh drugs. Half of the cells were transferred to 6-well plates.
(§7) A second aliquot of the cells cultured for 14 days with all the treatments listed above was washed with PBS+1% FBS, stained with CD8-PerCP, CD45RA-FITC, CCR7-PE and CD62L-APC (5 ul/100 ul/sample for each of 4 antibodies) at 4° C. for 1 h, washed twice with PBS+1% FBS and analyzed on flow cytometer to check if these drugs are enriching for T cells showing surface expression of CD8+CD45RA+CCR7+CD62L+.

Assay [2] concerns Pgp+ (DiOC2(3)-dye effluxing) T cells. The experiment in a line: DiOC2(3) dye efflux flow cytometry of inhibitor-treated T cells. Conditions: treatment for 13 days, IL2 + CD3 and CD28 antibodies. The protocol:
(§8) The use of P-glycoprotein (Pgp)-mediated efflux of DiOC2(3) to isolate stem like T cells for adoptive cellular therapy has been described in application no. […] In the following examples, DiOC2(3) staining was used to study the effect of different inhibitors on generation of stem like T cells.
as §1
(§9) The cell growth medium was changed in 6-well plates and fresh drugs were added at same concentration for one more week.
(§10) […] (DAY 11): Culture medium was changed and fresh drugs were added in 6-well plates.
(§11) Subsequently, cells were washed with RPMI medium and dye was effluxed at 37° C. for 90 min. Cells were washed with […], stained with CD62L-APC (5 μl/100 μl/sample) at 4° C. for 1 h, washed twice with PBS+1% FBS and analyzed on flow cytometer to check if these drugs treatment leads to increase in Pgp+/CD62L positive population.
as §3, §4, §5, §6
(§12) Day 14: An aliquot of cells with all the treatments listed above (for 13 days) was used to stain the cells with DiOC2(3) (60 ng/ml in RPMI medium) at 4° C. for 40 min, washed with RPMI medium, DiOC2(3) dye was effluxed at 37° C. for 90 min, washed with PBS+1% FBS, stained with CD62L-APC antibody. CD62L is a marker for resting T cells. (5 μl/100 μl/sample) at 4° C. for 1 h, washed twice with PBS+1% FBS and analyzed on flow cytometer to check if these drugs are affecting the dye-effluxing or Pgp+ (i.e., DiOC2(3)-dull) T-cell population.
On the technique in general: In flow cytometry, cells or beads pass a laser one at a time.

For assay [3], the system named is CD45RA+CCR7+CD62L+ T cells. The experiment in a line: Flow cytometry for CD45RA, CCR7 and CD62L on inhibitor-treated T cells (all T cells). Conditions: cells cultured for 14 days. Here is the method: as §1, §2, §3, §4, §5, §6, §7
The test system of assay [4] is Pgp+ (DiOC2(3)-dye effluxing cells) and CD62L+ T cells. The experiment in a line: DiOC2(3) dye efflux plus CD62L-APC staining, flow cytometry of inhibitor-treated T cells. Conditions: treatment for 13 days, IL2 + CD3 and CD28 antibodies. The protocol: as §8, §1, §9, §10, §11, §3, §4, §5, §6, §12

The structures appear in SMILES notation.

Regarding `CCn1cc(-c2cccc(C(F)(F)F)c2)c2sc(C(=N)NC3CCS(=O)(=O)CC3)cc2c1=O` [IBRD9], the “GATE P4 CD8(PerCP)+, CD45RA(FITC)+, CCR7 (PE)+, CD62L(APC)” value is 74.3% in assay [1] (500 nM) and 79.18% in assay [1] (1 μM). For the same compound, the “p2: pgp+ from Live cells” value came out at 21.12 in assay [2] (500 nM) and 31.69 in assay [2] (1 μM). Besides, the “GATE P6 CD45RA(FITC)+, CCR7 (PE)+, CD62L(APC)” value in assay [3] (500 nM) came out at 61.53%; in assay [3] (1 μM) it was 67.77%. Moreover, the results for the “p5: double +ve pgp+ and CD62L-APC+ from Live cells” value in assay [4] (500 nM) and in assay [4] (1 μM) were 4.51 and 7.26, respectively.

`Cc1ccc(Cl)c(Nc2ccccc2C(=O)O)c1Cl` [MECLO]: the “GATE P4 CD8(PerCP)+, CD45RA(FITC)+, CCR7 (PE)+, CD62L(APC)” value is given as 57.65% in assay [1] (100 nM) and 75.78% in assay [1] (500 nM). Further, the entries for the “p2: pgp+ from Live cells” value in assay [2] (100 nM) and in assay [2] (500 nM) were 22.22 and 20.11, respectively. Further, the “GATE P6 CD45RA(FITC)+, CCR7 (PE)+, CD62L(APC)” value in assay [3] (100 nM) was determined as 53.02%; in assay [3] (500 nM), 66.64%. Further, the “p5: double +ve pgp+ and CD62L-APC+ from Live cells” value was found to be 3.74 in assay [4] (100 nM) and 3.72 in assay [4] (500 nM).

These data come from patent US20210290676A1, “IMPROVING THE EFFICACY AND SAFETY OF ADOPTIVE CELLULAR THERAPIES” (University of Southern California, priority 2018, published 2021).
